# Measurements taken from patent publication US12398111B2, “Triazine compounds and pharmaceutical use thereof” (Japan Tobacco Inc., priority 2014, dated 2025).
# Biological target: T1, human mPGES-1 (Homo sapiens, UniProt O14684)
# T1 construct: made in house; host or cells: FreeStyle CHO-S cells (Chinese hamster ovary), transient transfection with pcDNA3.1(+)/human mPGES-1; microsome fraction used
# T1 sequence (O14684 1-152): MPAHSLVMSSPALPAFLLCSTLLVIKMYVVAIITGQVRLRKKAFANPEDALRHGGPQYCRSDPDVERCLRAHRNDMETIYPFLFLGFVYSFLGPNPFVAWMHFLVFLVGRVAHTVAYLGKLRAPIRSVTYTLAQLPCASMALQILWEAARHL
# Assay: Evaluation of human mPGES-1 enzyme inhibitory activity (PGE2 measured by HTRF, microsome fraction of CHO-S cells expressing human mPGES-1)
# Format: biochemical
# Details: IC50 value; microsome fraction of CHO-S cells expressing human mPGES-1, PGE2 by HTRF
# Method in brief: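 Enzyme source: microsomes from CHO-S cells transfected with human mPGES-1 and cultured 48 hr, diluted to 5 μg/mL protein in reduced GSH (12.5 mmol/L KPB solution). Test articles were in 0.1 mol/L potassium phosphate pH 7.4, final DMSO 2% (v/v). PGE2 formed was quantified by HTRF.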
row,Structure (SMILES),IC50
1,CCCOc1ccc(-c2nc(O)nc(-c3cc(CN4CC(C)(C)C4=O)ccc3Cl)n2)cc1 [Example 1-158],0.012 µM
2,CC(C)(C(=O)NCc1ccc(Cl)c(-c2nc(O)nc(-c3ccc(OCC4CCCCC4)cc3)n2)c1)C(F)(F)F [Example 1-172],0.017 µM
3,CC1(C)CCC(Oc2ccc(-c3nc(O)nc(-c4cc(CNC(=O)C(C)(C)C(F)(F)F)ccc4Cl)n3)cc2)CC1 [Example 1-179],0.016 µM
4,CN(C)C(=O)OCc1ccc(Cl)c(-c2nc(O)nc(-c3ccc(OCC4CC4)cc3)n2)c1 [Example 1-190],0.047 µM
5,CC(C)(C(=O)NCc1ccc(Cl)c(-c2nc(O)nc(-c3ccc(C#CC4CCCCC4)cc3)n2)c1)C(F)(F)F [Example 1-191],0.015 µM
6,NC(=O)c1ccc(Cl)c(-c2nc(O)nc(-c3ccc(OCC4CC4)cc3)n2)c1 [Example 1-193],8.7 µM
7,CNC(=O)c1ccc(Cl)c(-c2nc(O)nc(-c3ccc(OCC4CC4)cc3)n2)c1 [Example 1-194],10.5 µM
8,CN(C)C(=O)c1ccc(Cl)c(-c2nc(O)nc(-c3ccc(OCC4CC4)cc3)n2)c1 [Example 1-195],6 µM
9,CN(Cc1ccc(Cl)c(-c2nc(O)nc(-c3ccc(OCC(C)(C)C)cc3)n2)c1)C(=O)C(C)(C)C(F)(F)F [Example 1-196],0.042 µM
10,COCc1ccc(Cl)c(-c2nc(O)nc(-c3ccc(OCC(C)(C)C)cc3)n2)c1 [Example 1-197],0.289 µM
11,CC(C)(C)COc1ccc(-c2nc(O)nc(-c3cc(CCO)ccc3Cl)n2)cc1 [Example 1-198],0.014 µM
12,COCCc1ccc(Cl)c(-c2nc(O)nc(-c3ccc(OCC(C)(C)C)cc3)n2)c1 [Example 1-199],0.031 µM
13,CC(C)(C)COc1ccc(-c2nc(O)nc(-c3cc(CCNC(=O)C(C)(C)C(F)(F)F)ccc3Cl)n2)cc1 [Example 1-203],0.02 µM
14,CC(C)COCc1ccc(Cl)c(-c2nc(O)nc(-c3ccc(OCC(C)(C)C)cc3)n2)c1 [Example 1-204],0.034 µM
15,CCCCc1ccc(Cl)c(-c2nc(O)nc(-c3ccc(OCC(C)(C)C)cc3)n2)c1 [Example 1-205],0.367 µM
16,CC(C)Cc1ccc(-c2nc(O)nc(-c3cc(CN(C)C(=O)C(C)(C)C(F)(F)F)ccc3Cl)n2)cc1 [Example 1-206],0.014 µM
17,CC(C)(C)COc1ccc(-c2nc(O)nc(-c3cc(CNC(=O)C(C)(C)C(F)(F)F)ccc3C(F)(F)F)n2)cc1 [Example 1-208],0.016 µM
18,CCN(Cc1ccc(Cl)c(-c2nc(O)nc(-c3ccc(OCC(C)(C)C)cc3)n2)c1)C(=O)OC(C)(C)C [Example 1-209],0.059 µM
19,CCNCc1ccc(Cl)c(-c2nc(O)nc(-c3ccc(OCC(C)(C)C)cc3)n2)c1 [Example 1-210],0.288 µM
20,CN(Cc1ccc(Cl)c(-c2nc(O)nc(-c3ccc(OCC4CCCCC4)cc3)n2)c1)C(=O)C(C)(C)C(F)(F)F [Example 1-211],0.063 µM

row,Structure (SMILES),IC50
1,CC(C)(C)COc1ccc(-c2nc(O)nc(-c3cc(CNCC(F)(F)F)ccc3Cl)n2)cc1 [Example 1-212],0.032 µM
2,CN(Cc1ccc(Cl)c(-c2nc(O)nc(-c3ccc(C#CC4CCCCC4)cc3)n2)c1)C(=O)C(C)(C)C(F)(F)F [Example 1-213],0.088 µM
3,CC(C)(C)COc1ccc(-c2nc(O)nc(-c3cc(CC(C)(C)O)ccc3Cl)n2)cc1 [Example 1-214],0.024 µM
4,COC(C)(C)Cc1ccc(Cl)c(-c2nc(O)nc(-c3ccc(OCC(C)(C)C)cc3)n2)c1 [Example 1-215],0.452 µM
5,CC(O)Cc1ccc(Cl)c(-c2nc(O)nc(-c3ccc(OCC(C)(C)C)cc3)n2)c1 (centres unmarked) [Example 1-216],0.039 µM
6,CC(C)(C)COc1ccc(-c2nc(O)nc(-c3cc(CCC(=O)NC(C)(C)C)ccc3Cl)n2)cc1 [Example 1-217],0.126 µM
7,CN(C)C(=O)CCc1ccc(Cl)c(-c2nc(O)nc(-c3ccc(OCC(C)(C)C)cc3)n2)c1 [Example 1-218],0.07 µM
8,CC(C)COCc1ccc(Cl)c(-c2nc(O)nc(-c3ccc(C#CC4CCCCC4)cc3)n2)c1 [Example 1-219],0.041 µM
9,CN(Cc1ccc(Cl)c(-c2nc(O)nc(-c3ccccc3)n2)c1)C(=O)C(C)(C)C(F)(F)F [Example 1-220],0.016 µM
10,CN(Cc1ccc(Cl)c(-c2nc(O)nc(-c3ccccc3)n2)c1)C(=O)C(C)(C)C [Example 1-221],0.079 µM
11,CC(C)C(=O)N(C)Cc1ccc(Cl)c(-c2nc(O)nc(-c3ccccc3)n2)c1 [Example 1-222],0.165 µM
12,CCC(=O)N(C)Cc1ccc(Cl)c(-c2nc(O)nc(-c3ccccc3)n2)c1 [Example 1-224],5.8 µM
13,CCCC(=O)N(C)Cc1ccc(Cl)c(-c2nc(O)nc(-c3ccccc3)n2)c1 [Example 1-225],4.2 µM
14,CC(C)CC(=O)N(C)Cc1ccc(Cl)c(-c2nc(O)nc(-c3ccccc3)n2)c1 [Example 1-226],2.2 µM
15,CN(CCc1ccc(Cl)c(-c2nc(O)nc(-c3ccc(OCC(C)(C)C)cc3)n2)c1)C(=O)C(C)(C)C(F)(F)F [Example 1-227],0.05 µM
16,CN(Cc1ccc(Cl)c(-c2nc(O)nc(-c3ccccc3)n2)c1)C(=O)C1CCCC1 [Example 1-228],0.672 µM
17,CN(Cc1ccc(Cl)c(-c2nc(O)nc(-c3ccccc3)n2)c1)C(=O)C1CCCCC1 [Example 1-229],0.532 µM
18,CN(Cc1ccc(Cl)c(-c2nc(O)nc(-c3ccccc3)n2)c1)C(=O)c1ccccc1 [Example 1-230],0.75 µM
19,CCC(C)(C)C(=O)N(C)Cc1ccc(Cl)c(-c2nc(O)nc(-c3ccccc3)n2)c1 [Example 1-231],0.045 µM
20,CC(C)Cc1ccc(-c2nc(O)nc(-c3cc(CC(=O)N(C)C(C)(C)C)ccc3Cl)n2)cc1 [Example 1-232],0.521 µM

# Continued, values first:
row,IC50,Structure (SMILES)
1,0.0007 µM,O=C(NCc1ccc(Cl)c(-c2nc(O)nc(-c3ccc(F)c(C4CC4)c3)n2)c1)C1(C(F)(F)F)CC1 [Example 1-157]
2,0.0007 µM,CC(C)(C(=O)NCc1ccc(Cl)c(-c2nc(O)nc(-c3cccc(C4CC4)c3)n2)c1)C(F)(F)F [Example 1-159]
3,0.0014 µM,O=C(NCc1ccc(Cl)c(-c2nc(O)nc(-c3cccc(C4CC4)c3)n2)c1)C1(C(F)(F)F)CC1 [Example 1-160]
4,0.0013 µM,CCOc1ccc(-c2nc(O)nc(-c3cc(CNC(=O)C(C)(C)C(F)(F)F)ccc3Cl)n2)c(C)c1 [Example 1-161]
5,0.0012 µM,CO[C@](C)(C(=O)NCc1ccc(Cl)c(-c2nc(O)nc(-c3ccc(OCC4CC4)cc3)n2)c1)C(F)(F)F [Example 1-162]
6,0.001 µM,O=C(NCc1ccc(Cl)c(-c2nc(O)nc(-c3ccc(OCC4CC4)cc3)n2)c1)C1(C(F)(F)F)CC1 [Example 1-163]
7,0.0037 µM,CC(C)(C(=O)NCc1ccc(Cl)c(-c2nc(O)nc(-c3ccc(OCC4(C(F)(F)F)CC4)cc3)n2)c1)C(F)(F)F [Example 1-164]
8,0.0009 µM,CO[C@](C)(C(=O)NCc1ccc(Cl)c(-c2nc(O)nc(-c3ccc(F)c(C4CC4)c3)n2)c1)C(F)(F)F [Example 1-165]
9,0.0011 µM,CC(C)(CC(F)(F)F)C(=O)NCc1ccc(Cl)c(-c2nc(O)nc(-c3ccc(OCC4CC4)cc3)n2)c1 [Example 1-166]
10,0.0019 µM,CC(C)(C(=O)NCc1ccc(Cl)c(-c2nc(O)nc(-c3ccc(OCCC4CC4)cc3)n2)c1)C(F)(F)F [Example 1-167]
11,0.0021 µM,CC1(C)CC(C(=O)NCc2ccc(Cl)c(-c3nc(O)nc(-c4ccc(OCC5CC5)cc4)n3)c2)C1 [Example 1-168]
12,0.0015 µM,O=C(NCc1ccc(Cl)c(-c2nc(O)nc(-c3ccc(OCC4CC4)cc3)n2)c1)C1CCC(F)(F)CC1 [Example 1-170]
13,0.0005 µM,CCC(CC)C(=O)NCc1ccc(Cl)c(-c2nc(O)nc(-c3ccc(OCC4CC4)cc3)n2)c1 [Example 1-171]
14,0.0054 µM,CC1(C)C(C(=O)NCc2ccc(Cl)c(-c3nc(O)nc(-c4ccc(OCC5CC5)cc4)n3)c2)C1(C)C [Example 1-173]
15,0.0031 µM,Cc1ccc(C#N)c(-c2nc(O)nc(-c3ccc(C#Cc4ccccc4)cc3)n2)c1 [Example 1-174]
16,0.0013 µM,Cc1cc(-c2nc(O)nc(-c3cc(CNC(=O)C(C)(C)C(F)(F)F)ccc3Cl)n2)ccc1OCC1CC1 [Example 1-175]
17,0.0018 µM,Cc1cc(-c2nc(O)nc(-c3cc(CNC(=O)C(C)(C)C(F)(F)F)ccc3Cl)n2)cc(C)c1OCC1CC1 [Example 1-176]
18,0.0013 µM,CO[C@](C)(C(=O)NCc1ccc(Cl)c(-c2nc(O)nc(-c3ccc(CC(C)C)cc3)n2)c1)C(F)(F)F [Example 1-177]
19,0.0041 µM,CCCCc1ccc(-c2nc(O)nc(-c3cc(CNC(=O)C(C)(C)C(F)(F)F)ccc3Cl)n2)cc1 [Example 1-180]
20,0.0024 µM,CCCCc1ccc(-c2nc(O)nc(-c3cc(CNC(=O)[C@@](C)(OC)C(F)(F)F)ccc3Cl)n2)cc1 [Example 1-181]
21,0.0016 µM,CC(C)COc1ccc(-c2nc(O)nc(-c3cc(CNC(=O)C(C)(C)C(F)(F)F)ccc3Cl)n2)cn1 [Example 1-182]
22,0.0013 µM,Cc1cc(-c2nc(O)nc(-c3cc(CNC(=O)C(C)(C)CC(F)(F)F)ccc3Cl)n2)ccc1F [Example 1-183]
23,0.0014 µM,Cc1cc(-c2nc(O)nc(-c3cc(CNC(=O)C(C)(C)C(F)(F)F)ccc3Cl)n2)ccc1F [Example 1-186]
24,0.0053 µM,CC(C)(C)COc1ccc(-c2nc(O)nc(-c3cc(CO)ccc3Cl)n2)cc1 [Example 1-187]
25,0.0082 µM,CC(C)(C(=O)NCc1ccc(Cl)c(-c2nc(O)nc(-c3ccccc3)n2)c1)c1ccccc1 [Example 1-202]
26,0.0043 µM,CC(C)(C)COc1ccc(-c2nc(O)nc(-c3cc(CO)ccc3C(F)(F)F)n2)cc1 [Example 1-207]
27,0.007 µM,CN(Cc1ccc(Cl)c(-c2nc(O)nc(-c3ccc(OCC(C)(C)C)cc3)n2)c1)S(=O)(=O)C(C)(C)C [Example 1-223]

# Same assay, conditions: at 30 μM test article
row,inhibition at 30 µM,Structure (SMILES)
1,41%,O=C(O)c1ccc(Cl)c(-c2nc(O)nc(-c3ccc(OCC4CC4)cc3)n2)c1 [Example 1-192]
